Here are results for twelve compounds from patent US8772499B2, “TRPV3 modulators” (AbbVie Inc., priority 2011, dated 2014).

Usually IC50 stands for the concentration that gives 50% inhibition.

For one data set, the target named is T1, human TRPV3 (Homo sapiens, UniProt Q8NET8).
T1 construct: expressed in transfected cells
T1 sequence (Q8NET8 1-790): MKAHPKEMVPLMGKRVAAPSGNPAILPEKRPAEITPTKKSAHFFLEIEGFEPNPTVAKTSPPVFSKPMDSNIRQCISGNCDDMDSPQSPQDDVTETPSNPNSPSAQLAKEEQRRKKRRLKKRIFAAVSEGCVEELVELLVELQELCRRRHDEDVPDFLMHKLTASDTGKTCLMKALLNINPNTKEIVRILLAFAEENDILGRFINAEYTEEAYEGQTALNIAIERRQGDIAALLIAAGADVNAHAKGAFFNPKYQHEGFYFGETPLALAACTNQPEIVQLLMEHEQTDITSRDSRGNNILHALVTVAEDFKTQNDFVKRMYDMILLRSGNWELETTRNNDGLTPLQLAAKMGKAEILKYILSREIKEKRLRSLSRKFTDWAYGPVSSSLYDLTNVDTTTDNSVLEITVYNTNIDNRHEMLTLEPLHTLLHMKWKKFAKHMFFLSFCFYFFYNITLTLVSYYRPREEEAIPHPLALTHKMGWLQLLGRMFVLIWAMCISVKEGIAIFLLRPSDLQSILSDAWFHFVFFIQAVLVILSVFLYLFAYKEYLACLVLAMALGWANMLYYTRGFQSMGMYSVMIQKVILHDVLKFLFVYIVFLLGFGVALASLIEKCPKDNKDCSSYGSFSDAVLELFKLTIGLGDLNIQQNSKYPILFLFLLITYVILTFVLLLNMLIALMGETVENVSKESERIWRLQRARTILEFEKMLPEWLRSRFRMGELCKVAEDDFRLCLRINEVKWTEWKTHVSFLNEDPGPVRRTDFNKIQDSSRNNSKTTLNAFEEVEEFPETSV
The experiment in a line: In vitro antagonism of recombinant human TRPV3 activation (FLIPR Tetra calcium assay). In kind it is cell-based. Conditions: HEK293 cells stably expressing human TRPV3; agonist 2-APB at 80 μM; actual measured value shown parenthetically; in most cases average of at least two runs; read-out: IC50. The essentials: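 Calcium flux read over a 10 min run: compound added at 10 s to Calcium-4-loaded human TRPV3-HEK293 cells, agonist 2-APB (80 μM, its EC80) after 3 min. IC50 derived from peak-minus-baseline signal as percentage of uninhibited 2-APB response, typically averaged over at least two runs.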

A short description of data set [1]: In vitro human microsomal stability assay. Conditions: human, microsomes, 0.5 h, 0.5 μM, pH 7.4. It is filed as in vitro ADME. The method, boiled down: (§1)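 Metabolic stability was followed in NADPH-supplemented incubations at 37° C., using microsomes prepared from human liver or from Sprague-Dawley rat liver.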
Data set [2] in a line: In vitro rat microsomal stability assay. In kind it is in vitro ADME, rat (Sprague-Dawley). Conditions: Sprague-Dawley, rat, microsomes, 0.5 h, 0.5 μM, pH 7.4. The method, boiled down:
as §1

Structures are written as SMILES.

Regarding `OC(c1ccccn1)C1(c2ccc(F)cc2)CCC1` (stereo not drawn) [Example 3, [1-(4-fluorophenyl)cyclobutyl](pyridin-2-yl)methanol], the IC50 on human TRPV3 was determined as 790 nM. Besides, in data set [1], the “HUMAN MICROSOMAL STABILITY (% REMAINING AFTER 30 MINUTES)” value is 28%. Moreover, in data set [2], the “RAT MICROSOMAL STABILITY (% REMAINING AFTER 30 MINUTES)” value was 3.8%.

For `OC(c1ccccn1)C1(c2ccc(F)c(F)c2)CCC1` (stereo not drawn) [Example 4, [1-(3,4-difluorophenyl)cyclobutyl](pyridin-2-yl)methanol], the concentration for half-maximal inhibition (IC50) at human TRPV3 came out at 460 nM. For the same compound, the “HUMAN MICROSOMAL STABILITY (% REMAINING AFTER 30 MINUTES)” value in data set [1] is 19%. In data set [2], the “RAT MICROSOMAL STABILITY (% REMAINING AFTER 30 MINUTES)” value is 4.2%.

For `OC(c1ccccn1)C1(c2ccccc2C(F)(F)F)CCC1` (stereo not drawn) [Example 5, pyridin-2-yl{1-[2-(trifluoromethyl)phenyl]cyclobutyl}methanol], the half-maximal inhibitory concentration (IC50) at human TRPV3 was 5220 nM. For the same compound, in data set [1], the “HUMAN MICROSOMAL STABILITY (% REMAINING AFTER 30 MINUTES)” value stood at 0.27%. For the same compound, the “RAT MICROSOMAL STABILITY (% REMAINING AFTER 30 MINUTES)” value in data set [2] is 0.06%.

`OC(c1ccccn1)C1(c2cccc(C(F)(F)F)c2)CCC1` (stereo not drawn) [Example 6, pyridin-2-yl{1-[3-(trifluoromethyl)phenyl]cyclobutyl}methanol]: the IC50 at human TRPV3 was found to be 350 nM. Besides, the “HUMAN MICROSOMAL STABILITY (% REMAINING AFTER 30 MINUTES)” value in data set [1] was found to be 1.2%. For the same compound, the “RAT MICROSOMAL STABILITY (% REMAINING AFTER 30 MINUTES)” value in data set [2] was 2.3%.

`Cc1ccccc1C1(C(O)c2ccccn2)CCC1` (stereo not drawn) [Example 7, [1-(2-methylphenyl)cyclobutyl](pyridin-2-yl)methanol]: the half-maximal inhibitory concentration (IC50) on human TRPV3 is 17500 nM. Moreover, in data set [1], the “HUMAN MICROSOMAL STABILITY (% REMAINING AFTER 30 MINUTES)” value is recorded as 0.15%. The “RAT MICROSOMAL STABILITY (% REMAINING AFTER 30 MINUTES)” value in data set [2] was 0.32%.

With `Cc1cccc(C2(C(O)c3ccccn3)CCC2)c1` (stereo not drawn) [Example 8, [1-(3-methylphenyl)cyclobutyl](pyridin-2-yl)methanol], on human TRPV3, the 50% inhibitory concentration (IC50) came to 380 nM. Besides, in data set [1], the “HUMAN MICROSOMAL STABILITY (% REMAINING AFTER 30 MINUTES)” value worked out at 0.13%. Also, in data set [2], the “RAT MICROSOMAL STABILITY (% REMAINING AFTER 30 MINUTES)” value is on record as 0.73%.

Turning to `Cc1ccc(C2(C(O)c3ccccn3)CCC2)cc1` (stereo not drawn) [Example 9, [1-(4-methylphenyl)cyclobutyl](pyridin-2-yl)methanol], at human TRPV3, the IC50 stood at 1510 nM. In addition, the “HUMAN MICROSOMAL STABILITY (% REMAINING AFTER 30 MINUTES)” value in data set [1] is reported as 0.12%. The “RAT MICROSOMAL STABILITY (% REMAINING AFTER 30 MINUTES)” value in data set [2] was determined as 0.18%.

On to `OC(c1ccccn1)C1(c2ccccc2OC(F)(F)F)CCC1` (stereo not drawn) [Example 10, pyridin-2-yl{1-[2-(trifluoromethoxy)phenyl]cyclobutyl}methanol], for which the half-inhibitory concentration (IC50) at human TRPV3 amounted to 1100 nM. For the same compound, the “HUMAN MICROSOMAL STABILITY (% REMAINING AFTER 30 MINUTES)” value in data set [1] turned out to be 0.42%. In data set [2], the “RAT MICROSOMAL STABILITY (% REMAINING AFTER 30 MINUTES)” value was determined as 0.62%.

With `OC(c1ccccn1)C1(c2cccc(OC(F)(F)F)c2)CCC1` (stereo not drawn) [Example 11, pyridin-2-yl{1-[3-(trifluoromethoxy)phenyl]cyclobutyl}methanol], at human TRPV3, the IC50 was 400 nM. The “HUMAN MICROSOMAL STABILITY (% REMAINING AFTER 30 MINUTES)” value in data set [1] amounted to 0.72%. In addition, in data set [2], the “RAT MICROSOMAL STABILITY (% REMAINING AFTER 30 MINUTES)” value was 0.80%.

Take `OC(c1ccccn1)C1(c2ccc(OC(F)(F)F)cc2)CCC1` (stereo not drawn) [Example 12, pyridin-2-yl{1-[4-(trifluoromethoxy)phenyl]cyclobutyl}methanol]: on human TRPV3, the IC50 came out at 420 nM. Also, the “HUMAN MICROSOMAL STABILITY (% REMAINING AFTER 30 MINUTES)” value in data set [1] is 24%. Besides, the “RAT MICROSOMAL STABILITY (% REMAINING AFTER 30 MINUTES)” value in data set [2] is 11%.

`OC(c1ccccn1)C1(c2cc(C(F)(F)F)cc(C(F)(F)F)c2)CCC1` (stereo not drawn) [Example 13, {1-[3,5-bis(trifluoromethyl)phenyl]cyclobutyl}(pyridin-2-yl)methanol]: at human TRPV3, the IC50 amounted to 600 nM. The “HUMAN MICROSOMAL STABILITY (% REMAINING AFTER 30 MINUTES)” value in data set [1] amounted to 7.4%. In addition, the “RAT MICROSOMAL STABILITY (% REMAINING AFTER 30 MINUTES)” value in data set [2] worked out at 19%.

Regarding `OC(c1ccccn1)C1(c2ccc(F)c(C(F)(F)F)c2)CCC1` (stereo not drawn) [Example 15, {1-[4-fluoro-3-(trifluoromethyl)phenyl]cyclobutyl}(pyridin-2-yl)methanol], on human TRPV3, the 50% inhibitory concentration (IC50) was 310 nM. Besides, in data set [1], the “HUMAN MICROSOMAL STABILITY (% REMAINING AFTER 30 MINUTES)” value was found to be 5.6%. Further, the “RAT MICROSOMAL STABILITY (% REMAINING AFTER 30 MINUTES)” value in data set [2] was 1.2%.
